According to patent publication US20070265289A1, “2-Aminopyrimidine Derivative” (priority 2004, published 2007):
Counter-ions that a name gives are not always drawn.

Columns and labels:
[1] = tested on: TNF-α production; assay: Mouse LPS-induced TNF-α production model; format: in vivo, Balb/c female mice; details: oral administration of 30 mg/kg, 60 minutes before LPS, blood 90 minutes after LPS; for inhibition in vivo at 30 mg/kg: Mus musculus, po, 1.5 h, read-out: inhibition of plasma TNF-α
Protocol: (2) Mouse LPS-Induced TNF-α Production Model:
6 weeks old Balb/c female mice were placed into two groups, a control group and a test compound administration group. A solution containing 10 μg/mouse of LPS in 0.9% physiological salt was administered by intraperitoneal injection into the control mice. 60 minutes before the LPS administration, a compound of the invention was orally administered to the mice of the test compound administration group. Under anesthesia with diethyl ether, blood was collected from the posterior venous cavity of the mice of both the test compound administration group and the control group at 90 minutes after the LPS administration, and treated with heparin, and the plasma was separated from it through centrifugation at 10000 rpm at 4° C. for 10 minutes, and then diluted two-fold with PBS (pH 7.4).
The TNF-α concentration in the sample was determined with an ELISA kit (by Pharmingen, San Diego, Calif.). The inhibition by the mice of the test compound administration group relative to the mean inhibition by those of the control group was calculated as a mean value thereof.
The inhibition in oral administration of 30 mg/kg of compound (I) is shown below.

[2] = tested on: carrageenan paw edema; assay: Rat carrageenan paw edema model; format: in vivo, Sprague-Dawley male rats; details: for edema inhibitory activity: 30 mg/kg oral administration, 3 hours after carrageenan
Protocol: (3) Rat Carrageenan Paw Edema Model:
After their body weight was measured, Sprague-Dawley male rats (6-10 weeks age, male, by Nippon SLC) were divided into groups of 5 rats each in such a manner that the mean body weight of each group could be on the same level. Next, a test compound was orally administered to the rats (but 10 mL/kg of solvent alone was administered to those of the control group). 30 minutes after the test compound administration thereto, 100 μL of a 1% carrageenan (by Sigma Aldrich Japan) solution was subcutaneously injected to the sub-plantar of the right foot of each rat to induce inflammation. 3 hours after the inflammation induction, the rats were killed by deep anesthetization with ether, and their tissue below the right and left ankles was cut and collected and its weight was measured.
The test result was obtained as follows: In every rat, the weight of the left foot with no carrageenan injection thereto was subtracted from the weight of the right foot with carrageenan injection thereto, 3 hours after the carrageenan injection, thereby calculating the weight difference (g) therebetween. The edema inhibition in the test compound-administered rats was calculated relative to the mean value of the rats of the control group. For multi-group comparison between the control group and the test compound administration group, employed was a Dunnett multiple comparison test, in which the P value less than 0.05 was considered as statistical significance. All the above statistical analyses were carried out, using SAS.

[3] = molecular target: T1, rat IKK2 (Rattus norvegicus, UniProt Q9QY78); assay: Evaluation of rat IKK2 enzyme inhibition; format: biochemical; details: 0.5 μM ATP, probit analysis; read-out: IC50, rat IKK2 enzyme activity-inhibitory effect
T1 construct: ORF of rat IKK2 (GenBank AF115282) was cloned from a rat pancreas cDNA library; FLAG; made in house; host or cells: Sf9 insect cells
T1 sequence (Q9QY78 1-757): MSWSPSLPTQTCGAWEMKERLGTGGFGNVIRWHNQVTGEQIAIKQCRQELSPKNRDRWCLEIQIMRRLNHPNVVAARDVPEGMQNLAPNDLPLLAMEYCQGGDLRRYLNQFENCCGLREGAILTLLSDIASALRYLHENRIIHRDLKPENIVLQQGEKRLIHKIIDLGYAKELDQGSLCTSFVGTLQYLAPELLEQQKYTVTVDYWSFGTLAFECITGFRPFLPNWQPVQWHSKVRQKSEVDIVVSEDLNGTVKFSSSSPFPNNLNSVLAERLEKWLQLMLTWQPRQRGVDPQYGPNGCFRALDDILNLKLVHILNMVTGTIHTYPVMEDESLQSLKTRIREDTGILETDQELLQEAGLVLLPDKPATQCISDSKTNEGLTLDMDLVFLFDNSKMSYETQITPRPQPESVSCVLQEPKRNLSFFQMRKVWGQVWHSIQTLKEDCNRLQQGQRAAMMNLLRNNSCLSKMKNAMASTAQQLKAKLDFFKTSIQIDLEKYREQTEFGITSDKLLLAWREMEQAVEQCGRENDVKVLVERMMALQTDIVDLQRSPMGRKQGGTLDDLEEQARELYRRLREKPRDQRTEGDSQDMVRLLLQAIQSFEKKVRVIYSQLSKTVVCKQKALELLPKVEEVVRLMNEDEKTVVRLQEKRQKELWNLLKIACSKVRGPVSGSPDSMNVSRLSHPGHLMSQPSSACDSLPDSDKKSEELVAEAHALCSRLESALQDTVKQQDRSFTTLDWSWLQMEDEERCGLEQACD
Protocol: (1) Evaluation of Rat IKK2 Enzyme Inhibition:
ORF of rat IKK2 (GenBank AF115282) was cloned from a rat pancreas cDNA library, and with a FLAG-tag attached thereto, it was expressed in an Sf9 cell line. The cells were dissolved in a cytolytic solution (50 mM Tris-HCl pH 7.5, 0.15M NaCl, 1% NP-40, 10% glycerol, 1 mM EDTA, 1 mM EGTA pH 7.5, 1 mM Na3VO4, 5 mM p-nitrophenylphosphate, 10 mM O-glycerophosphate, 1 mM DTT, 1 mM PMSF, 10 μg/ml leupeptin, 10 μg/ml aprotinin (by Sigma)) to prepare a large amount of an cell extract, which was then purified on an anti-FLAG M2 antibody (by Sigma). This experimental operation was carried out in accordance with gene manipulation experiment manuals such as known methods (Sambrook, J. et al, Molecular Cloning-A Laboratory Manual, Cold Spring Harbor laboratory, NY, 1989) or the instructions attached to the reagents. The purified rat IKK2 was stored in an enzyme preservative (20 mM Tris-HCl pH 7.5, 10% glycerol, 12.5 mM β-glycerophosphate, 0.5 mM EDTA, 0.5 mM EGTA, 0.05% Brij35, 1 mM DTT, 1 mM PMSF (by Sigma)) at −80° C.
The purified rat IKK2, 1× enzymatic reaction buffer (20 mM Tris-HCl pH 7.5, 12.5 mM O-glycerophosphate, 20 mM MgCl2, 0.1 mM DTT), 0.01% BSA (by Sigma), 0.5 μM ATP, 0.2 μM biotinated substrate peptide (18th to 49th amino acid residues of rat I-kappa B alpha (GenBank Q63746)) and a test compound dissolved in DMSO were added to a 384-well plate (catalogue No. 3677, by Corning) to be 10 μl in total therein, and left at room temperature for 90 minutes. Next, […] of a reaction stopper (100 mM Hepse pH 8, 0.01% BSA, 0.8 M KF, 50 mM EDTA pH 8, 1% Triton X-100, europium cryptate-labeled anti-phosphorylation I-kappa B alpha-antibody (by Santa Cru), streptoavidin-labeled XL665 (by Nihon Schering)) was added thereto, kept warmed for 30 minutes, and then assayed with DISCOVERY (by Perkin-Elmer). The rat IKK2 enzyme activity-inhibitory effect of the tested compound was obtained according to the following formula. Every dose was tested independently three times. Inhibition (%) by Test Compound=((mean value with rat IKK2 but not with test compound)−(mean value with both test compound and rat IKK2))/((mean value with rat IKK2 but not with test compound)−(mean value not with rat IKK2))×100.

[4] = tested on: collagen-induced rheumatoid arthritis; assay: Rat collagen-induced rheumatoid arthritis model; format: in vivo; details: oral administration at a dose of 30 mg/kg, 14 days
Protocol: (4) Collagen-Induced Rheumatoid Arthritis Model:
The effect to rat collagen-induced rheumatoid arthritis was evaluated according to a partial modification of the method described in The Japanese Journal of Pharmacology, 1997 August; 74(4): 313-22.
10 mL of a 1 mg/mL solution of bovine-derived type 2 collagen (by Cosmobio) diluted three-fold with acetic acid was mixed with adjuvant incomplete Freund (by Difco) in 1/1, and emulsified to give an emulsion for sensitization. The tail root of each rat in a control group and in a test compound administration group was disinfected with ethanol, and collagen-sensitized through intradermal injection of 0.4 mL of the emulsion containing […] of collagen thereinto to thereby induce rheumatoid arthritis. The rats in the non-sensitized group were not treated for collagen sensitization. To the rats of the control group, 10 mL/kg of 0.5% methyl cellulose was orally administered. To the rats of the test compound administration group, a compound of the invention was orally administered. One week after the sensitization, the administration continued for 14 days. The degree of inflammation was judged by measuring the rheumatoid arthritis scores of the four limbs of each rat (scoring). Briefly, the symptom of each articulation was visually grouped into the following four ranks (0: normal, 1: flare or light swelling, 2: middle swelling, 3: heavy swelling or joint ankylosis); and the total of the numerical data of the four limbs is referred to as the rheumatoid arthritis score. The scoring was carried out every other day after the development of rheumatoid arthritis. The cumulative rheumatoid arthritis score was calculated by totaling the rheumatoid arthritis scores on every scoring date of every individual. Relative to the mean cumulative rheumatoid arthritis score of rats of the control group, the inhibition by the those of the test compound administration group was calculated, and the mean value of the data was shown.

| Structure (SMILES) | inhibition in vivo at 30 mg/kg [1] [%] | IC50 [3] [nM] | other results |
| --- | --- | --- | --- |
| CCc1ccc(O)c(-c2cc(C3CCCNC3)nc(N)n2)c1 (single isomer, unassigned; (+)) [Example 79, (+)-2-(2-amino-6-piperidin-3-ylpyrimidin-4-yl)-4-ethylphenol dihydrochloride] | 64 |  |  |
| Cc1ccc(-c2cc(C3CCCNC3)nc(N)n2)c(O)c1 (centres unmarked) [Example 21] |  | ≤ 500 | edema inhibitory activity [2]: 30% |
| Cc1ccc(O)c(-c2cc(C3CCCNC3)nc(N)n2)c1 (centres unmarked) [Example 22] | 73 | ≤ 500 |  |
| CCc1ccc(O)c(-c2cc(C3CCCNC3)nc(N)n2)c1 (centres unmarked) [Example 23] |  | ≤ 500 | edema inhibitory activity [2]: 50% |
| Nc1nc(-c2c(O)cccc2OCC2CC2)cc(C2CCCNC2)n1 (centres unmarked) [Example 37] |  | ≤ 500 | inhibition of cumulative rheumatoid arthritis score [4]: ~100% |
| CC1CC1COc1cccc(O)c1-c1cc(C2CCCNC2)nc(N)n1 (centres unmarked) [Example 65, 2-(2-amino-6-piperidin-3-ylpyrimidin-4-yl)-3-[(2-methylcyclopropyl)methoxy]phenol dihydrochloride] | 75 | ≤ 500 |  |
| Nc1nc(-c2c(O)cccc2OCC2CCC2)cc(C2CCCNC2)n1 (centres unmarked) [Example 85] | 85 | ≤ 500 | inhibition of cumulative rheumatoid arthritis score [4]: ~100% |
| Nc1nc(-c2c(O)cccc2OCC(F)(F)C(F)F)cc(C2CCCNC2)n1 (centres unmarked) [Example 89] | 87 | ≤ 500 |  |
| Nc1nc(-c2c(O)cccc2OCC2CCCC2)cc(C2CCCNC2)n1 (centres unmarked) [Example 92] |  | ≤ 500 | inhibition of cumulative rheumatoid arthritis score [4]: ~100% |
| CC(COc1cccc(O)c1-c1cc(C2CCCNC2)nc(N)n1)Oc1ccccc1 (centres unmarked) [Example 103] | 70 | ≤ 500 |  |
| Nc1nc(-c2c(O)cccc2OCCC2CC2)cc(C2CCCNC2)n1 (centres unmarked) [Example 104] | 86 | ≤ 500 |  |
| Nc1nc(-c2c(O)cccc2OCCCC(F)(F)F)cc(C2CCCNC2)n1 (centres unmarked) [Example 106] | 82 | ≤ 500 |  |
| CC1CCC(c2cc(-c3c(O)cccc3OCC3CC3)nc(N)n2)CN1 (centres unmarked) [Example 140] | 86 | 2.9 |  |
| Nc1nc(-c2c(O)cccc2OCC2CC2)cc(C2CCCNC2)n1 (centres unmarked) [Example 141] | 86 |  |  |
| Nc1nc(-c2c(O)cccc2OCC2CC2)cc(C2CCCNC2)n1 (centres unmarked) [Example 142] |  |  | inhibition of plasma TNF-α ([1]; 30 mg/kg): 90% |
| CN(Cc1cnc2nc(N)nc(N)c2n1)c1ccc(C(=O)N[C@@H](CCC(=O)O)C(=O)O)cc1 [Methotrexate, reference compound] |  |  | effect on carrageenan paw edema ([2]; dose not given): did not exhibit an effect |
